Experimental data reported in PubChem BioAssay (NCI).
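Growth conditions: 96-well plates. Treatment: test compound, 48 hours, 5 concentrations. Analysis: linear interpolation between bracketing concentrations; unreached endpoints set to highest concentration. GI50 = concentration required for 50% inhibition of growth. TGI: total growth inhibition.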

Assays:
Test in all cases: inhibition of tumour cell growth, NCI panel, 48 h
M14 melanoma = test system: M14 melanoma
HS 578T breast = test system: HS 578T breast
SW-620 colon = test system: SW-620 colon
OVCAR-3 ovarian = test system: OVCAR-3 ovarian
MDA-N = test system: MDA-N
NCI-H23 lung = test system: NCI-H23 lung
SNB-75 CNS = test system: SNB-75 CNS
UO-31 renal = test system: UO-31 renal
A498 renal = test system: A498 renal
RXF 393 renal = test system: RXF 393 renal
MDA-MB-435 = test system: MDA-MB-435
HCT-15 colon = test system: HCT-15 colon
RPMI-8226 leukemia = test system: RPMI-8226 leukemia
SK-OV-3 ovarian = test system: SK-OV-3 ovarian
IGROV1 ovarian = test system: IGROV1 ovarian
EKVX NSCLC = test system: EKVX NSCLC
NCI/ADR-RES ovarian = test system: NCI/ADR-RES ovarian

Compound	TGI (M14 melanoma) [µM]	TGI (HS 578T breast) [µM]	TGI (SW-620 colon) [µM]	TGI (OVCAR-3 ovarian) [µM]	TGI (MDA-N) [µM]	TGI (NCI-H23 lung) [µM]	TGI (SNB-75 CNS) [µM]	TGI (UO-31 renal) [µM]	TGI (A498 renal) [µM]	TGI (RXF 393 renal) [µM]	TGI (MDA-MB-435) [µM]	TGI (HCT-15 colon) [µM]	TGI (RPMI-8226 leukemia) [µM]	TGI (SK-OV-3 ovarian) [µM]	TGI (IGROV1 ovarian) [µM]	TGI (EKVX NSCLC) [µM]	TGI (NCI/ADR-RES ovarian) [µM]	GI50 (UO-31 renal) [µM]	GI50 (A498 renal) [µM]
N#Cc1n[nH]n(-c2ccccc2)c1=O	> 100	> 100	> 100	> 100	> 100	> 100	> 100	> 100	> 100	> 100	> 100	> 100	> 100	> 100	> 100	> 100	> 100		
CCOC(=O)/C=C(/C(=O)OCC)n1cc(C)c(=O)[nH]c1=O	3.91	46.9	4.84	6.71	17.7	18.3	23.7	23.5	26.4	4.52	10.2	4.92	5.68	32.4	12.9	15.6	33.7		
COc1cc([N+](=O)[O-])cc2c1NC(=O)C2(C)SC (stereo not drawn)	> 100	> 100	> 100	> 100	> 100	> 100	90.6	> 100	> 100	> 100	> 100	> 100	> 100	69.7	> 100	> 100	> 100		
COc1ccc(N2C(=O)C3c4[nH]c5ccc(OC)cc5c4C4CCC(c5ccccc5)CC4C3C2=O)cc1 (stereo not drawn)	> 56.8	12.7	25.1	37	> 66.7	46.6	16.7	> 70.6	37.4	25	68.4	> 100	39.7	26.1	62.2	52	33.2		
NC(=S)NN=C1Cc2ccccc2C1	> 100	> 100	> 100	> 100	> 100	> 100	> 100	> 100	> 100	> 100	> 100	> 100	> 100	> 100	> 100	> 100	> 100		
COC(OC)[C@@H]1OC[C@H](n2ccc(=O)[nH]c2=O)[C@H]1O	> 100	> 100	> 100	> 100	> 100	> 100	> 100	> 100	> 100	> 100	> 100	> 100	> 100	> 100	> 100	> 100	> 100		
COc1ccccc1CC1(O)OC(=O)c2ccccc21 (stereo not drawn)	> 100	> 100	> 100	> 100	> 100	> 100	> 100	> 100	> 100	> 100	> 100	> 100	> 100	> 100	> 100	> 100	> 100		
c1cc2nnc1SCCSCCCSCCS2	> 100	> 100	> 100	> 100	> 100	> 100	41.2	> 100	> 100	> 100	> 100	> 100	> 100	> 100	> 100	> 100	> 100		
O=S(=O)(N1CCCCN(S(=O)(=O)C(F)(F)F)CCCN(S(=O)(=O)C(F)(F)F)CCCCN(S(=O)(=O)C(F)(F)F)CCCN(S(=O)(=O)C(F)(F)F)CCCCN(S(=O)(=O)C(F)(F)F)CCCN(S(=O)(=O)C(F)(F)F)CCCCN(S(=O)(=O)C(F)(F)F)CCC1)C(F)(F)F	> 31.6	> 31.6	> 31.6	> 31.6	> 31.6	> 31.6	> 31.6	> 31.6	> 31.6	> 31.6	> 31.6	> 31.6	> 100	> 31.6	> 31.6	> 31.6	> 31.6		
O=c1oc2ccccc2c(O)c1Cc1ccccc1Cc1c(O)c2ccccc2oc1=O	> 100	> 100	> 100	> 100	> 100	> 100	> 100	> 100	> 100	> 100	> 100	> 100	> 100	> 100	> 100	> 100	> 100		
O=C(O)C(C(F)(F)F)C(F)(F)F (tested in a mixture with another compound)	> 100	> 100	> 100	> 100	> 100	> 100	> 100	> 100	> 100	> 100	> 100	> 100	> 100	> 100	> 100	> 100	> 100		
COc1ccc(/C=C2/C(=O)N(/C=C3\C(=O)Oc4ccccc4C3=O)C(=NC(C)=O)N2C)cc1OC	> 100	> 100	> 100	> 41.7	> 100	> 100	> 100	> 100	> 100	> 100	> 100	> 100	> 100	> 100	> 100	> 100	> 100	> 100	> 100
O=C1NC(=O)C23C(=O)NC(=O)C12C1C=CC3CC1 (stereo not drawn)	> 10	> 10	> 10	> 10	> 10	> 10	> 10	> 10	> 10	> 10	> 10	> 10	> 10	> 10	> 10	> 10	> 10		
